“Also recorded” adds a separate entry of the source. Read-outs that look alike come from different tables or passages of the source.
Experiments:
Spodoptera litura [1] = conditions: Spodoptera litura on castor leaves; dose 1 ml/gm/lit.; 10 insects/treatment; 72 hrs after application
Mealy Bug [2] = conditions: mealy bug on cotton plants, green house, dose 1 ml/gm/lit. spray; for % Mortality at 48 Hrs. / Total No. of dead insect at 48 Hrs.: 48 hrs after application; for % Corrected Mortality at 48 Hrs.: corrected for water control
Aphid [3] = conditions: Aphids on cotton plants, green house; dose 1 ml/gm/lit.; 10 insects/plant, 10 plants/treatment; 48 hrs
Helicoverpa armigera [4] = conditions: Helicoverpa armigera on okra fruits, dose 1 ml/gm/lit., 72 Hrs.; for Total No. of dead insect at 72 Hrs.: 10 insects/treatment, 4 replications; for % Corrected Mortality at 72 Hrs.: corrected for water control
tomato seedlings = assay: Response of tomato plants, greenhouse growth (Ex. 30); assay type: in vivo; conditions: tomato seedlings, dose 1 ml/gm/lit; for Plant Height 5th Day / Stem Girth 5th Day / CCI 5th Day: 5th day after application; for Plant Height 10th Day / Stem Girth 10th Day / CCI 10th Day: 10th day after application; for Plant Height % Increase over pre on 10th Day / Stem Girth % Increase over pre on 10th Day / CCI % Increase over pre on 10th Day / Root Length (cm) 10th Day / Root Length % Increase over control: 10th day; for Root Length % Increase over control: vs water control
Mite [5] = conditions: mite on okra plants, green house, dose 1 ml/gm/lit. spray; for % Mortality at 48 Hrs. / Total No. of dead insect at 48 Hrs.: 48 hrs after application; for % Corrected Mortality at 48 Hrs.: corrected for water control
Aphid [6] = conditions: Dose 1 ml/gm/lit.; for Total No. of dead insect at 48 Hrs.: 10 insects/treatment, 4 replications, cotton leaves
Thrips [7] = conditions: thrips on cotton plants, greenhouse, dose 1 ml/gm/lit. spray; for % Mortality at 48 Hrs. / Total No. of dead insect at 48 Hrs.: 48 hrs after application; for % Corrected Mortality at 48 Hrs.: corrected for water control
[8] = Table 13, effect on plants, descriptive; cited from earlier work
Thrips [9] = conditions: Thrips on cotton leaves; dose 1 ml/gm/lit.; 10 insects/treatment; 48 hrs after application
Mite [10] = conditions: Dose 1 ml/gm/lit.; for Total No. of dead insect at 48 Hrs.: 10 insects/treatment, 4 replications, okra leaves
Alternaria alternata [11] = assay: Alternaria leaf spot/blight on inoculated tomato plants (Ex. 28); assay type: in vivo; conditions: tomato plants, Alternaria alternata; after 7 days; dose 1 ml/gm/lit
Alternaria alternata [12] = assay: In vitro poisoned food technique against fungus (Ex. 20); assay type: cell-based; conditions: poisoned food technique, PDA medium, dose 1 ml/gm/lit., after seven days; for inhibition of growth at 1 mL or g/L: vs untreated control, read-out: % Inhibition of growth
Aphid [13] = assay: whole plant or invertebrate; conditions: 48 h
Helicoverpa armigera [14] = conditions: Helicoverpa armigera 3rd instar on chickpea plants, dose 1 ml/gm/lit. spray; for % Mortality at 72 Hrs.: 72 hrs after application; for % Corrected Mortality at 72 Hrs.: corrected for water control
Spodoptera litura [15] = assay: whole plant or invertebrate; conditions: 72 h
Mealy Bug [16] = conditions: Mealy Bug on cotton leaves, dose 1 ml/gm/lit., 48 Hrs.; for Total No. of dead insect at 48 Hrs.: 10 insects/treatment, 4 replications; for % Corrected Mortality at 48 Hrs.: corrected for water control
Spodoptera litura [17] = conditions: Spodoptera litura 3rd instar on cabbage plants, dose 1 ml/gm/lit. spray; for % Mortality at 72 Hrs.: 72 hrs after application; for % Corrected Mortality at 72 Hrs.: corrected for water control
Thrips [18] = assay: whole plant or invertebrate; conditions: in Gossypium hirsutum, 48 h
chili seedlings = assay: Response of chili plants, greenhouse growth (Ex. 31); assay type: in vivo; conditions: chili seedlings, dose 1 ml/gm/lit; for CCI 5th Day / Plant Height (cm) 5th Day: 5th day after application; for CCI 10th Day / Plant Height (cm) 10th Day: 10th day after application; for CCI % Increase over pre on 10th Day / Plant Height % Increase over pre on 10th Day / Root Lenght (cm) 10th Day / Stem Girth % Increase over pre on 10th Day / Root Lenght % Increase over control: 10th day; for Root Lenght % Increase over control: vs water control
[19] = read-out: % Corrected Mortality at 48 Hrs.
[20] = read-out: % Mortality at 48 Hrs.
[21] = read-out: % Corrected Mortality at 72 Hrs.
[22] = read-out: % Mortality at 72 Hrs.

CC12CCC(CC1)C(C)(C)O2 [1,8 cineole]
Total No. of dead insect at 72 Hrs. (Spodoptera litura [1]): 6.00 | % Mortality at 48 Hrs. (Mealy Bug [2]): 45.00% | Total No. of dead insect at 48 Hrs. (Mealy Bug [2]): 45.00 | % Corrected Mortality at 48 Hrs. (Mealy Bug [2]): 38.89% | Total No. of dead insect at 48 Hrs. (Aphid [3]): 62.50 | Total No. of dead insect at 72 Hrs. (Helicoverpa armigera [4]): 5.50 | % Mortality at 72 Hrs. (Helicoverpa armigera [4]): 55.00% | % Corrected Mortality at 72 Hrs. (Helicoverpa armigera [4]): 55.00% | Plant Height 5th Day (tomato seedlings): 6.84 cm | Stem Girth 5th Day (tomato seedlings): 1.74 mm | Plant Height 10th Day (tomato seedlings): 7.53 cm | Stem Girth 10th Day (tomato seedlings): 2.16 mm | Plant Height % Increase over pre on 10th Day (tomato seedlings): 29.60% | Stem Girth % Increase over pre on 10th Day (tomato seedlings): 58.82% | CCI 5th Day (tomato seedlings): 13.55 | CCI % Increase over pre on 10th Day (tomato seedlings): 26.08% | Root Length (cm) 10th Day (tomato seedlings): 4.07 cm | CCI 10th Day (tomato seedlings): 14.55 | Root Length % Increase over control (tomato seedlings): 22.24% | % Mortality at 48 Hrs. (Mite [5]): 22.50% | Total No. of dead insect at 48 Hrs. (Mite [5]): 22.50 | % Corrected Mortality at 48 Hrs. (Mite [5]): 18.42% | Total No. of dead insect at 48 Hrs. (Aphid [6]): 6.50 | % Corrected Mortality at 48 Hrs. (Aphid [6]): 60.00% | % Mortality at 48 Hrs. (Aphid [6]): 65.00% | % Mortality at 48 Hrs. (Thrips [7]): 67.50% | Total No. of dead insect at 48 Hrs. (Thrips [7]): 67.50 | % Corrected Mortality at 48 Hrs. (Thrips [7]): 63.89% | Phytotonic Effect [8]: Boost chlorophyll; also recorded: Trigger the nutrition | Total No. of dead insect at 48 Hrs. (Thrips [9]): 7.00 | Total No. of dead insect at 48 Hrs. (Mite [10]): 2.50 | % Corrected Mortality at 48 Hrs. (Mite [10]): 18.92% | % Mortality at 48 Hrs. (Mite [10]): 25.00% | % Disease reduction over Control (Alternaria alternata [11]): 46.28% | Mean colony Diameter (mm) (Alternaria alternata [12]): 72.00 mm | inhibition of growth at 1 mL or g/L (Alternaria alternata [12]): 18.2% | mortality at 1 mL or g/L (Aphid [13]; [19]): 55.9% | mortality at 1 mL or g/L (Aphid [13]; [20]): 62.5% | % Mortality at 72 Hrs. (Helicoverpa armigera [14]): 52.50% | % Corrected Mortality at 72 Hrs. (Helicoverpa armigera [14]): 52.50% | mortality at 1 mL or g/L (Spodoptera litura [15]; [21]): 57.9% | mortality at 1 mL or g/L (Spodoptera litura [15]; [22]): 60% | Total No. of dead insect at 48 Hrs. (Mealy Bug [16]): 5.50 | % Mortality at 48 Hrs. (Mealy Bug [16]): 55.00% | % Corrected Mortality at 48 Hrs. (Mealy Bug [16]): 52.63% | % Mortality at 72 Hrs. (Spodoptera litura [17]): 70.00% | % Corrected Mortality at 72 Hrs. (Spodoptera litura [17]): 68.42% | mortality at 1 mL or g/L (Thrips [18]; [19]): 65.7% | mortality at 1 mL or g/L (Thrips [18]; [20]): 70% | CCI 5th Day (chili seedlings): 9.69 | Plant Height (cm) 5th Day (chili seedlings): 6.99 cm | CCI % Increase over pre on 10th Day (chili seedlings): 42.63% | Plant Height % Increase over pre on 10th Day (chili seedlings): 49.60% | Root Lenght (cm) 10th Day (chili seedlings): 3.26 cm | Stem Girth % Increase over pre on 10th Day (chili seedlings): 44.88% | CCI 10th Day (chili seedlings): 12.58 | Plant Height (cm) 10th Day (chili seedlings): 7.54 cm | Root Lenght % Increase over control (chili seedlings): 19.07%

C=CCc1ccc(OC)cc1 [Methyl chavicol]
Total No. of dead insect at 72 Hrs. (Spodoptera litura [1]): 6.50 | % Mortality at 48 Hrs. (Mealy Bug [2]): 60.00% | Total No. of dead insect at 48 Hrs. (Mealy Bug [2]): 60.00 | % Corrected Mortality at 48 Hrs. (Mealy Bug [2]): 55.56% | Total No. of dead insect at 48 Hrs. (Aphid [3]): 67.50 | Total No. of dead insect at 72 Hrs. (Helicoverpa armigera [4]): 6.25 | % Mortality at 72 Hrs. (Helicoverpa armigera [4]): 62.50% | % Corrected Mortality at 72 Hrs. (Helicoverpa armigera [4]): 62.50% | Plant Height 5th Day (tomato seedlings): 7.16 cm | Stem Girth 5th Day (tomato seedlings): 1.50 mm | Plant Height 10th Day (tomato seedlings): 7.86 cm | Stem Girth 10th Day (tomato seedlings): 2.10 mm | Plant Height % Increase over pre on 10th Day (tomato seedlings): 28.43% | Stem Girth % Increase over pre on 10th Day (tomato seedlings): 55.56% | CCI 5th Day (tomato seedlings): 14.23 | CCI % Increase over pre on 10th Day (tomato seedlings): 23.12% | Root Length (cm) 10th Day (tomato seedlings): 4.13 cm | CCI 10th Day (tomato seedlings): 15.23 | Root Length % Increase over control (tomato seedlings): 24.05% | % Mortality at 48 Hrs. (Mite [5]): 42.50% | Total No. of dead insect at 48 Hrs. (Mite [5]): 42.50 | % Corrected Mortality at 48 Hrs. (Mite [5]): 39.47% | Total No. of dead insect at 48 Hrs. (Aphid [6]): 6.50 | % Corrected Mortality at 48 Hrs. (Aphid [6]): 60.00% | % Mortality at 48 Hrs. (Aphid [6]): 65.00% | % Mortality at 48 Hrs. (Thrips [7]): 57.50% | Total No. of dead insect at 48 Hrs. (Thrips [7]): 57.50 | % Corrected Mortality at 48 Hrs. (Thrips [7]): 52.78% | Total No. of dead insect at 48 Hrs. (Thrips [9]): 5.50 | Total No. of dead insect at 48 Hrs. (Mite [10]): 4.50 | % Corrected Mortality at 48 Hrs. (Mite [10]): 40.54% | % Mortality at 48 Hrs. (Mite [10]): 45.00% | % Disease reduction over Control (Alternaria alternata [11]): 48.76% | Mean colony Diameter (mm) (Alternaria alternata [12]): 54.00 mm | inhibition of growth at 1 mL or g/L (Alternaria alternata [12]): 38.6% | mortality at 1 mL or g/L (Aphid [13]; [19]): 61.8% | mortality at 1 mL or g/L (Aphid [13]; [20]): 67.5% | % Mortality at 72 Hrs. (Helicoverpa armigera [14]): 67.50% | % Corrected Mortality at 72 Hrs. (Helicoverpa armigera [14]): 67.50% | mortality at 1 mL or g/L (Spodoptera litura [15]; [21]): 63.2% | mortality at 1 mL or g/L (Spodoptera litura [15]; [22]): 65% | Total No. of dead insect at 48 Hrs. (Mealy Bug [16]): 6.25 | % Mortality at 48 Hrs. (Mealy Bug [16]): 62.50% | % Corrected Mortality at 48 Hrs. (Mealy Bug [16]): 60.53% | % Mortality at 72 Hrs. (Spodoptera litura [17]): 62.50% | % Corrected Mortality at 72 Hrs. (Spodoptera litura [17]): 60.53% | mortality at 1 mL or g/L (Thrips [18]; [19]): 48.6% | mortality at 1 mL or g/L (Thrips [18]; [20]): 55% | CCI 5th Day (chili seedlings): 12.70 | Plant Height (cm) 5th Day (chili seedlings): 5.97 cm | CCI % Increase over pre on 10th Day (chili seedlings): 38.53% | Plant Height % Increase over pre on 10th Day (chili seedlings): 44.42% | Root Lenght (cm) 10th Day (chili seedlings): 3.11 cm | Stem Girth % Increase over pre on 10th Day (chili seedlings): 45.91% | CCI 10th Day (chili seedlings): 15.1 | Plant Height (cm) 10th Day (chili seedlings): 6.21 cm | Root Lenght % Increase over control (chili seedlings): 13.83%

Source: US20250351832A1, “PHYTOCHEMICALS AS BIOPESTICIDES AND BIOSTIMULANTS” (KAY BEE BIO ORGANICS PVT. LTD., priority 2024, published 2025)
